We go through 46 compounds from patent US11291655B2, “RAD51 inhibitors” (Cyteir Therapeutics, Inc., priority 2017, dated 2022).

pEC50: −log10 of the molar value.

This assay relates to Daudi Cell Culture. Nature of the assay: Compound primary screening in Daudi cell culture. Type of assay: cell-based. The conditions noted are these: Homo sapiens, 168 h; Daudi cells, 1250 cells per well, reads on Day 7. On the procedure: Compound Primary Screening
1. Materials and Supplies
Plastic ware and consumables needed for this experiment include: Cell Culture media; Evaporation Buffer media; 100% DMSO; 96 well U-bottom sterile culture plates; 250 mL bottle; 1.5 mL Opaque amber epi tubes; Epi Tube rack; 300 mL reservoirs; 25 mL reservoir; 25 mL serological pipette tips; 5 mL serological pipette tips P1000 Pipette Tips; and P200 Pipette Tips.
Equipment needed for this experiment include: Viaflo 384 liquid handler; Eppendorf serological pipette; Eppendorf P1000 Pipette; and Eppendorf P200 Pipette
Daudi Cell Culture is also needed for this experiment.
Lastly, compounds (e.g., the compounds of this invention) to be tested are needed.
All steps were performed in a sterile environment inside the Biosafety cabinet.
A 96 well u-bottom plate was prepared by writing the experiment number, plate number, date and initials in the top right corner of the plate lid. With a sterile 300 ml reservoir, and 25 ml serological pipette, evaporation buffer media was pipetted into reservoir in 25 ml increments. Using the liquid handler, 150 ul of evaporation buffer media was pipetted from reservoir into rows A and H, and Columns 1 and 12 of the 96 well u-bottom plate. Cell cultures were counted to obtain the density of cells per ml, and the culture viability. The cell density information was used to obtain 1,000,000 cells from culture using a 5 mL serological pipette into an epi tube. The cell density information from the culture was used to calculate the number of cells and volume of media needed for the assay to seed 1250 cells in 130 ul of media per available culture well in the 96 well u-bottom plate. Rows B through F were used for cells (50 wells in total), with row G left for an empty media control. The calculation was overestimated by 10 mL to account for the dead volume in the 300 ml reservoir. Once the media volume was calculated, the appropriate volume of media was pipetted in 25 mL increments into the 250 mL bottle using a 25 mL serological pipette. The 250 ml bottle was capped tightly, and placed into a 37° C. water bath for 2 minutes. While the culture media was warming, 10 mL of fresh media was pipetted from the 500 mL culture media bottle into a sterile 25 mL reservoir. Using the Eppendorf multichannel pipette, 130 ul of media was pipetted from the 25 mL reservoir into row G of the 96 well u-bottom plate. Once the 250 mL bottle of media was warmed, the volume of culture needed was pipetted into the bottle, and mixed gently with a 25 mL serological pipette as to not create bubbles, and then the contents of the bottle were pipetted into a new 300 mL reservoir. Using the liquid handler, 130 ul of culture was pipetted from the 300 mL reservoir into rows B through F of the 96 well u-bottom plate. Once the culture was added, the plate was placed into a 37° C. incubator until the compound master plate was prepared for use.
Two 96 well u-bottom plates were prepared by writing the master plate name in the upper right corner of the plate lid. Labeling one DMSO master and the other Media Master. The compounds of interest were obtained from the laboratory freezer, and placed into a 25 well storage box with a lid, and set the box aside. The compounds were vortexed after thawing but before use. Using an automatic multichannel pipette, 20 ul of 100% DMSO was pipetted into wells B3-B11 through G3-G11 of the DMSO master plate. For each compound on the master plate, 50 ul of the compound were pipetted in the appropriate well of row 2 (reference plate map to determine appropriate well). A serial dilution was prepared beginning by aspirating 20 ul from row 2 and mixing with row 3, repeating until row 11 was reached. Using the liquid handler, 194 ul of Daudi media was dispensed into wells B2-B11 through G2-G11 of the Media master plate. Using the liquid handler, 6 ul from the DMSO master plate was aspirated and dispensed into the media master plate, mixing 100 ul twice. […]

`CC(=O)Nc1ccc(-c2cnc(-c3ccc(NC(=S)NC(C)C)cc3)s2)c(S(=O)(=O)NCCCN(C)C)c1` [Compound D25] gave a pEC50 above 6.00.

For the compound `CC(=O)Nc1ccc(-c2cnc(-c3ccc(NC(=S)NC(C)C)cc3)s2)c(S(=O)(=O)NCCOCCO)c1` [Compound D26], the pEC50 was below 5.00.

On to `COCCNS(=O)(=O)c1cc(NC(C)=O)ccc1-c1cnc(-c2ccc(NC(=S)NC(C)C)cc2)s1` [Compound D27], for which the pEC50 was below 5.00.

Compound `CC(=O)Nc1ccc(-c2cnc(-c3ccc(NC(=S)NC(C)C)cc3)s2)c(S(=O)(=O)NCCO)c1` [Compound D28] had a pEC50 below 5.00.

As to `CNCCNS(=O)(=O)c1cc(NC(C)=O)ccc1-c1cnc(-c2ccc(NC(=S)NC(C)C)cc2)s1` [Compound D29], the pEC50 is below 5.00.

The compound `CC(=O)Nc1ccc(-c2cnc(-c3ccc(NC(=S)NC(C)C)cc3)s2)c(S(=O)(=O)NC(C)(C)C)c1` [Compound D30] showed a negative-log EC50 (pEC50) above 5.30.

Compound `CC(C)OC(=O)Nc1ccc(-c2ncc(-c3ccc(NS(=O)(=O)c4ccccc4)cc3S(=O)(=O)NC(C)(C)C)s2)cc1` [Compound E1] had a negative-log EC50 (pEC50) below 5.00.

Consider `CC(C)OC(=O)Nc1ccc(-c2ncc(-c3ccc(NS(=O)(=O)Cc4ccccc4)cc3S(=O)(=O)NC(C)(C)C)s2)cc1` [Compound E2], for which the pEC50 is below 5.00.

Consider `CC(=O)Nc1ccc(-c2cnc(-c3ccc(NC(C)=O)cc3S(=O)(=O)NC(C)(C)C)s2)c(S(=O)(=O)NC(C)(C)C)c1` [Compound E3], for which the pEC50 was above 5.00.

Turning to `CC(=O)Nc1ccc(-c2ncc(-c3ccc(N)cc3S(=O)(=O)NC(C)(C)C)s2)cc1` [Compound E4], the pEC50 was below 5.00.

In the case of `CC(=O)Nc1ccc(-c2ncc(-c3ccc(NC(=S)NC(C)C)cc3S(=O)(=O)NC(C)(C)C)s2)cc1` [Compound E5], the pEC50 is above 5.00.

In turn, `CC(=O)Nc1ccc(-c2cnc(-c3ccc(N)cc3S(=O)(=O)NC(C)(C)C)s2)c(S(=O)(=O)NC(C)(C)C)c1` [Compound E8] had a negative logarithm of the EC50 (pEC50) below 5.00.

On to `CC(=O)Nc1ccc(-c2cnc(-c3ccc(NC(=S)NC(C)C)cc3S(=O)(=O)NC(C)(C)C)s2)c(S(=O)(=O)NC(C)(C)C)c1` [Compound E9], for which the pEC50 is above 6.00.

Consider `CC(=O)Nc1ccc(-c2cnc(-c3ccc(NC(=O)OC(C)C)cc3)s2)c(S(=O)(=O)NC(C)(C)C)c1` [Compound E11], for which the pEC50 is above 5.30.

As for `CC(C)(C)NS(=O)(=O)c1cc(Nc2nccs2)ccc1-c1cnc(-c2ccc(N)cc2)s1` [Compound E12], the pEC50 was below 5.00.

In the case of `CC(=O)N(C)c1ccc(-c2cnc(-c3ccc(N)cc3)s2)c(S(=O)(=O)NC(C)(C)C)c1` [Compound E14], the pEC50 is below 5.00.

`CC(=O)N(C)c1ccc(-c2cnc(-c3ccc(NC(=S)NC(C)C)cc3)s2)c(S(=O)(=O)NC(C)(C)C)c1` [Compound E15]: the pEC50 is below 5.00.

In turn, `Cn1ccnc1Nc1ccc(-c2cnc(-c3ccc(N)cc3)s2)c(S(=O)(=O)NC(C)(C)C)c1` [Compound E16] had a pEC50 below 5.00.

The compound `CC(C)NC(=S)Nc1ccc(-c2ncc(-c3ccc(Nc4nccn4C)cc3S(=O)(=O)NC(C)(C)C)s2)cc1` [Compound E17] had a pEC50 below 5.00.

In the case of `Cn1ccnc1Nc1ccc(-c2cnc(-c3ccc(N)cc3)s2)c(S(N)(=O)=O)c1` [Compound E18], the negative logarithm of the EC50 (pEC50) is below 5.00.

As to `CC(C)NC(=S)Nc1ccc(-c2ncc(-c3ccc(Nc4nccn4C)cc3S(N)(=O)=O)s2)cc1` [Compound E19], the negative logarithm of the EC50 (pEC50) is below 5.00.

The compound `CC(=O)N(C)c1ccc(-c2cnc(-c3ccc(NC(=O)OC(C)C)cc3)s2)c(S(=O)(=O)NC(C)(C)C)c1` [Compound E20] showed a pEC50 above 5.00.

In turn, `CC(=O)Nc1ccc(-c2ncc(-c3ccc(NC(=S)NC(C)C)cc3S(=O)(=O)NC(C)(C)C)s2)c(S(=O)(=O)NC(C)(C)C)c1` [Compound E21] gave a pEC50 above 5.30.

Compound `CC(=O)Nc1ccc(-c2cnc(-c3ccc(NC(=O)OCC(C)C)cc3)s2)c(S(=O)(=O)NC(C)(C)C)c1` [Compound G1] had a pEC50 above 5.30.

`COC(=O)Nc1ccc(-c2ncc(-c3ccc(NC(C)=O)cc3S(=O)(=O)NC(C)(C)C)s2)cc1` [Compound G2] showed a pEC50 above 5.00.

`CCOC(=O)Nc1ccc(-c2ncc(-c3ccc(NC(C)=O)cc3S(=O)(=O)NC(C)(C)C)s2)cc1` [Compound G3] gave a pEC50 above 6.00.

Turning to `CC(=O)Nc1ccc(-c2cnc(-c3ccc(NC(=O)CC(C)C)cc3)s2)c(S(=O)(=O)NC(C)(C)C)c1` [Compound G4], the pEC50 was below 5.00.

For the compound `CC(=O)Nc1ccc(-c2cnc(-c3ccc(NS(C)(=O)=O)cc3)s2)c(S(=O)(=O)NC(C)(C)C)c1` [Compound G5], the pEC50 was below 5.00.

Take `CC(=O)Nc1ccc(-c2cnc(-c3ccc(NS(=O)(=O)c4ccccc4)cc3)s2)c(S(=O)(=O)NC(C)(C)C)c1` [Compound G6]: the pEC50 is above 5.00.

`CCS(=O)(=O)Nc1ccc(-c2ncc(-c3ccc(NC(C)=O)cc3S(=O)(=O)NC(C)(C)C)s2)cc1` [Compound G7] gave a pEC50 below 5.00.

Consider `COCCS(=O)(=O)Nc1ccc(-c2ncc(-c3ccc(NC(C)=O)cc3S(=O)(=O)NC(C)(C)C)s2)cc1` [Compound G8], for which the pEC50 is below 5.00.

On to `CNS(=O)(=O)Nc1ccc(-c2ncc(-c3ccc(NC(C)=O)cc3S(=O)(=O)NC(C)(C)C)s2)cc1` [Compound G9], for which the pEC50 is below 5.00.

The compound `CC(=O)Nc1ccc(-c2cnc(-c3ccc(NC(=O)NC(C)C)cc3)s2)c(S(=O)(=O)NC(C)(C)C)c1` [Compound G10] showed a pEC50 above 5.00.

`CC(=O)Nc1ccc(-c2cnc(-c3ccc(NC(=O)OC(C)(C)C)cc3)s2)c(S(=O)(=O)NC(C)(C)C)c1` [Compound G11, tert-butyl N-[4-[5-[4-acetamido-2-(tert-butylsulfamoyl)phenyl]thiazol-2-yl]phenyl]carbamate] had a pEC50 above 5.30.

In turn, `CC(C)OC(=O)Nc1ccc(-c2ncc(-c3ccc(NC(=O)[C@@H]4CCCN4)cc3S(=O)(=O)NC(C)(C)C)s2)cc1` [Compound H1] gave a pEC50 above 5.30.

On to `CC(C)OC(=O)Nc1ccc(-c2ncc(-c3ccc(NC(=O)[C@H]4CCCN4)cc3S(=O)(=O)NC(C)(C)C)s2)cc1` [Compound H2], for which the pEC50 was above 5.30.

On to `CC(C)OC(=O)Nc1ccc(-c2ncc(-c3ccc(NC(=O)C4CC4)cc3S(=O)(=O)NC(C)(C)C)s2)cc1` [Compound H3], for which the negative-log EC50 (pEC50) is above 5.30.

In turn, `CCC(=O)Nc1ccc(-c2cnc(-c3ccc(NC(=O)OC(C)C)cc3)s2)c(S(=O)(=O)NC(C)(C)C)c1` [Compound H4] had a pEC50 above 6.00.

`CC(C)OC(=O)Nc1ccc(-c2ncc(-c3ccc(NC(=O)OCc4ccccc4)cc3S(=O)(=O)NC(C)(C)C)s2)cc1` [Compound H5] had a pEC50 above 6.00.

Compound `CCOC(=O)Nc1ccc(-c2cnc(-c3ccc(NC(=O)OC(C)C)cc3)s2)c(S(=O)(=O)NC(C)(C)C)c1` [Compound H6] gave a pEC50 above 6.00.

Compound `COC(=O)Nc1ccc(-c2cnc(-c3ccc(NC(=O)OC(C)C)cc3)s2)c(S(=O)(=O)NC(C)(C)C)c1` [Compound H7] showed a pEC50 above 6.00.

Take `CC(C)OC(=O)Nc1ccc(-c2ncc(-c3ccc(NC(=O)OC(C)C)cc3S(=O)(=O)NC(C)(C)C)s2)cc1` [Compound H8]: the negative logarithm of the EC50 (pEC50) was above 6.00.

`CC(C)OC(=O)Nc1ccc(-c2ncc(-c3ccc(NC(=O)c4ccccc4)cc3S(=O)(=O)NC(C)(C)C)s2)cc1` [Compound H9] gave a pEC50 above 6.00.

For `CC(C)OC(=O)Nc1ccc(-c2ncc(-c3ccc(NC(=O)C(C)C)cc3S(=O)(=O)NC(C)(C)C)s2)cc1` [Compound H10], the pEC50 is above 6.00.

In turn, `CC(C)OC(=O)Nc1ccc(-c2ncc(-c3ccc(NS(C)(=O)=O)cc3S(=O)(=O)NC(C)(C)C)s2)cc1` [Compound H11] showed a negative-log EC50 (pEC50) below 5.00.

`CCNc1ccc(-c2cnc(-c3ccc(NC(=O)OC(C)C)cc3)s2)c(S(=O)(=O)NC(C)(C)C)c1` [Compound I1, isopropyl N-[4-[5-[2-(tert-butylsulfamoyl)-4-(ethylamino)phenyl]thiazol-2-yl]phenyl]carbamate] gave a pEC50 above 5.30.

In general, pEC50 refers to −log10 of the EC50, conventionally taken in molar units. Lower therefore signals a large EC50.
